ChEMBL document CHEMBL4052829, “Identification of a Novel Hybridization from Isosorbide 5-Mononitrate and Bardoxolone Methyl with Dual Activities of Pulmonary Vasodilation and Vascular Remodeling Inhibition on Pulmonary Arterial Hypertension Rats” (J Med Chem, 2018)
Calls of active or inactive are those of the source. The calls are words filed in the database; no cut-off is given here.

Key:
[1] = tested on: Rattus norvegicus; assay: Pulmonary vasodilatory effect in MCT-induced Sprague-Dawley rat pulmonary arterial hypertension model assessed as weight ratio of right ventricle to left ventricle and septum at 0.78 ug/kg, inhaled daily for 28 days co-administered with CDDO-Me (reference value: 0.4796 +/- 0.030); assay type: functional
[2] = tested on: Rattus norvegicus; assay: Pulmonary vasodilatory effect in MCT-induced Sprague-Dawley rat pulmonary arterial hypertension model assessed as right ventricular systolic pressure at 0.78 ug/kg, inhaled daily for 28 days co-administered with CDDO-Me by polygraph method (reference value: 56.09 +/- 3.24 mmHg); assay type: functional
[3] = tested on: Rattus norvegicus; assay: Pulmonary vasodilatory effect in MCT-induced Sprague-Dawley rat pulmonary arterial hypertension model assessed as weight ratio of right ventricle to left ventricle and septum at 0.78 ug/kg, inhaled daily for 28 days (reference value: 0.4796 +/- 0.030); assay type: functional
[4] = tested on: Rattus norvegicus; assay: Pulmonary vasodilatory effect in MCT-induced Sprague-Dawley rat pulmonary arterial hypertension model assessed as right ventricular systolic pressure at 0.78 ug/kg, inhaled daily for 28 days by polygraph method (reference value: 56.09 +/- 3.24 mmHg); assay type: functional
[5] = tested on: Rattus norvegicus; assay: Pulmonary vasodilatory effect in MCT-induced Sprague-Dawley rat pulmonary arterial hypertension model assessed as mean pulmonary artery pressure at 0.78 ug/kg, inhaled daily for 28 days co-administered with CDDO-Me by polygraph method (reference value: 30.63 +/- 1.16 mmHg); assay type: functional
[6] = tested on: Rattus norvegicus; assay: Pulmonary vasodilatory effect in MCT-induced Sprague-Dawley rat pulmonary arterial hypertension model assessed as mean pulmonary artery pressure at 0.78 ug/kg, inhaled daily for 28 days by polygraph method (reference value: 30.63 +/- 1.16 mmHg); assay type: functional
[7] = target: T1, Nuclear factor erythroid 2-related factor 2 (Rattus norvegicus) (UniProt O54968); assay: Induction of Nrf2 translocation to nucleus of rat pulmonary artery endothelial cells at 1 uM after 24 hrs by immunofluorescence assay
T1 sequence (whole entry): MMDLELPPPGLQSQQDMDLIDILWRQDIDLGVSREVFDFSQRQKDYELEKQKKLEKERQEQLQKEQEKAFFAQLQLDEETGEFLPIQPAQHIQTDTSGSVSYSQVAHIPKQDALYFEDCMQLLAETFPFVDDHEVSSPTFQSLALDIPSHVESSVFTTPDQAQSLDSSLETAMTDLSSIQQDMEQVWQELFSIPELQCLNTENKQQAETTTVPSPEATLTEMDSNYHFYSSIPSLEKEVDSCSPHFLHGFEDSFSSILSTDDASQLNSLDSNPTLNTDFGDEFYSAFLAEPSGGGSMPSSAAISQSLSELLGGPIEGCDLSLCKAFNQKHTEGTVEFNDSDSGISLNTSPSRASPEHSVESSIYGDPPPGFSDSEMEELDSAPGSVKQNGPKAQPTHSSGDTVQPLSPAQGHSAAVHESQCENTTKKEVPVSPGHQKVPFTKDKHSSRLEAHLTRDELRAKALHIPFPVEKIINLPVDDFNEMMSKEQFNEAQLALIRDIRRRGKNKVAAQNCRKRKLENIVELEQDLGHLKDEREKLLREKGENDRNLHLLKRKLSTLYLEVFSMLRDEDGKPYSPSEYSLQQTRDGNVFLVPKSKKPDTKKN

[8] = tested on: Rattus norvegicus; assay: Pulmonary vasodilatory effect in MCT-induced Sprague-Dawley rat pulmonary arterial hypertension model assessed as mean pulmonary artery pressure at 3 ug/kg, inhaled daily for 28 days by polygraph method (reference value: 30.63 +/- 1.16 mmHg); assay type: functional
[9] = tested on: Rattus norvegicus; assay: Pulmonary vasodilatory effect in MCT-induced Sprague-Dawley rat pulmonary arterial hypertension model assessed as weight ratio of right ventricle to left ventricle and septum at 3 ug/kg, inhaled daily for 28 days (reference value: 0.4796 +/- 0.030); assay type: functional
[10] = tested on: Rattus norvegicus; assay: Pulmonary vasodilatory effect in MCT-induced Sprague-Dawley rat pulmonary arterial hypertension model assessed as right ventricular systolic pressure at 3 ug/kg, inhaled daily for 28 days by polygraph method (reference value: 56.09 +/- 3.24 mmHg); assay type: functional
[11] = tested on: Rattus norvegicus; assay: Pulmonary vasodilatory effect in MCT-induced Sprague-Dawley rat pulmonary arterial hypertension model assessed as reversal of MCT-induced ET-1 elevation in plasma at 3 ug/kg, inhaled daily for 28 days by ELISA; assay type: functional
[12] = tested on: Rattus norvegicus; assay: Pulmonary vasodilatory effect in MCT-induced Sprague-Dawley rat pulmonary arterial hypertension model assessed as reversal of MCT-induced nitric oxide reduction in plasma at 3 ug/kg, inhaled daily for 28 days by Griess assay; assay type: functional
[13] = tested on: Rattus norvegicus; assay: Inhibition of vascular remodeling in MCT-induced Sprague-Dawley rat pulmonary arterial hypertension model assessed as reduction of MCT-induced medial thickness of pulmonary artery at 3 ug/kg, inhaled daily for 28 days by hematoxylin and eosin staining-based assay; assay type: functional
[14] = tested on: Lung; assay: Drug metabolism in Sprague-Dawley rat lung assessed as formation of CDDO-Me at 1 mg/ml administered in trachea after 12 hrs by LC-MS/MS analysis; assay type: ADME, tissue-based; settings: in vivo, inhaled_or_intranasal
[15] = Drug uptake in Sprague-Dawley rat lung at 1 mg/ml administered in trachea after 60 mins by LC-MS/MS analysis; assay type: ADME, tissue-based; settings: inhaled or intranasal, read-out: Drug uptake
[16] = tested on: Rattus norvegicus; assay: Inhibition of vascular remodeling in MCT-induced Sprague-Dawley rat pulmonary arterial hypertension model assessed as decrease in MCT-induced TGF-beta expression in lung at 3 ug/kg, inhaled daily for 28 days by Western blot method; assay type: functional
[17] = tested on: Rattus norvegicus; assay: Inhibition of vascular remodeling in MCT-induced Sprague-Dawley rat pulmonary arterial hypertension model assessed as reduction of MCT-induced pulmonary vascular muscularization by measuring downregulation of alpha-SMA levels at 3 ug/kg, inhaled daily for 28 days by immunohistochemical method; assay type: functional
[18] = tested on: Rattus norvegicus; assay: Inhibition of oxidative response in lung of MCT-induced Sprague-Dawley rat pulmonary arterial hypertension model assessed as decrease in ratio of NOX4 positive cells and NOX4 expression at 3 ug/kg, inhaled daily for 28 days by Western blot method; assay type: functional
[19] = tested on: Rattus norvegicus; assay: Inhibition of vascular remodeling in MCT-induced Sprague-Dawley rat pulmonary arterial hypertension model assessed as downregulation of MCT-induced up-expression of alpha-SMA at 3 ug/kg, inhaled daily for 28 days by Western blot method; assay type: functional
[20] = tested on: Rattus norvegicus; assay: Inhibition of cardiac fibrosis in MCT-induced Sprague-Dawley rat pulmonary arterial hypertension model at 3 ug/kg, inhaled daily for 28 days by picro-sirius red staining-based assay; assay type: functional
[21] = tested on: Rattus norvegicus; assay: Inhibition of vascular remodeling in MCT-induced Sprague-Dawley rat pulmonary arterial hypertension model assessed as decrease in MCT-induced increment of PCNA positive cells in lung at 3 ug/kg, inhaled daily for 28 days by immunohistochemical method; assay type: functional
[22] = tested on: Rattus norvegicus; assay: Inhibition of vascular remodeling in MCT-induced Sprague-Dawley rat pulmonary arterial hypertension model assessed as decrease in MCT-induced macrophage infiltration in perivascular tissue at 3 ug/kg, inhaled daily for 28 days by immunohistochemical method; assay type: functional
[23] = tested on: Rattus norvegicus; assay: Inhibition of oxidative response in lung of MCT-induced Sprague-Dawley rat pulmonary arterial hypertension model assessed as decrease in ratio of NOX4 positive cells and NOX4 expression at 3 ug/kg, inhaled daily for 28 days by immunohistochemical method; assay type: functional
[24] = tested on: Rattus norvegicus; assay: Inhibition of vascular remodeling in MCT-induced Sprague-Dawley rat pulmonary arterial hypertension model assessed as decrease in MCT-induced perivascular fibrosis at 3 ug/kg, inhaled daily for 28 days by masson's trichrome staining-based assay; assay type: functional
[25] = tested on: Rattus norvegicus; assay: Inhibition of cardiomyocyte hypertrophy in MCT-induced Sprague-Dawley rat pulmonary arterial hypertension model at 3 ug/kg, inhaled daily for 28 days by hematoxylin and eosin staining-based assay; assay type: functional
[26] = tested on: Rattus norvegicus; assay: Inhibition of vascular remodeling in MCT-induced Sprague-Dawley rat pulmonary arterial hypertension model assessed as decrease in MCT-induced collagen-1 expression in lung at 3 ug/kg, inhaled daily for 28 days by Western blot method; assay type: functional
[27] = tested on: Lung; assay: Drug metabolism in Sprague-Dawley rat lung assessed as formation of CDDO-Me at 1 mg/ml administered in trachea after 90 mins by LC-MS/MS analysis; assay type: ADME, tissue-based; settings: in vivo, inhaled_or_intranasal, 1.5 h
[28] = tested on: Plasma; assay: Drug metabolism in Sprague-Dawley rat plasma assessed as formation of CDDO-Me at 1 mg/ml administered in trachea after 15 to 720 mins by LC-MS/MS analysis; assay type: ADME, cell-free; settings: inhaled_or_intranasal
[29] = tested on: Plasma; assay: Drug level in Sprague-Dawley rat plasma treated with CDDO-NO at 1 mg/ml administered in trachea after 15 to 720 mins by LC-MS/MS analysis; assay type: ADME, cell-free; settings: inhaled_or_intranasal
[30] = tested on: Rattus norvegicus; assay: Pulmonary vasodilatory effect in MCT-induced Sprague-Dawley rat pulmonary arterial hypertension model assessed as weight ratio of right ventricle to left ventricle and septum at 2.1 ug/kg, inhaled daily for 28 days co-administered with ISMN (reference value: 0.4796 +/- 0.030); assay type: functional
[31] = Drug uptake in Sprague-Dawley rat lung at 1 mg/ml administered in trachea after 360 mins by LC-MS/MS analysis; assay type: ADME, tissue-based; settings: inhaled or intranasal, read-out: Drug uptake
[32] = (§1) Drug uptake in Sprague-Dawley rat lung at 1 mg/ml administered in trachea after 180 mins by LC-MS/MS analysis; assay type: ADME; settings: Sprague-Dawley, lung, inhaled or intranasal, 1 mg/ml, read-out: Drug uptake
[33] = tested on: Lung; assay: as §1; assay type: ADME; settings: in vivo, inhaled_or_intranasal, 3 h, BLD = below limit of detection
[34] = tested on: Rattus norvegicus; assay: Pulmonary vasodilatory effect in MCT-induced Sprague-Dawley rat pulmonary arterial hypertension model assessed as right ventricular systolic pressure at 2.1 ug/kg, inhaled daily for 28 days co-administered with ISMN by polygraph method (reference value: 56.09 +/- 3.24 mmHg); assay type: functional
[35] = tested on: Rattus norvegicus; assay: Pulmonary vasodilatory effect in MCT-induced Sprague-Dawley rat pulmonary arterial hypertension model assessed as weight ratio of right ventricle to left ventricle and septum at 2.1 ug/kg, inhaled daily for 28 days (reference value: 0.4796 +/- 0.030); assay type: functional
[36] = tested on: Rattus norvegicus; assay: Pulmonary vasodilatory effect in MCT-induced Sprague-Dawley rat pulmonary arterial hypertension model assessed as mean pulmonary artery pressure at 2.1 ug/kg, inhaled daily for 28 days by polygraph method (reference value: 30.63 +/- 1.16 mmHg); assay type: functional
[37] = tested on: Lung; assay: Drug level in Sprague-Dawley rat lung treated with CDDO-NO at 1 mg/ml administered in trachea after 90 to 720 mins by LC-MS/MS analysis; assay type: ADME, tissue-based; settings: in vivo, inhaled_or_intranasal
[38] = tested on: Rattus norvegicus; assay: Pulmonary vasodilatory effect in MCT-induced Sprague-Dawley rat pulmonary arterial hypertension model assessed as mean pulmonary artery pressure at 2.1 ug/kg, inhaled daily for 28 days co-administered with ISMN by polygraph method (reference value: 30.63 +/- 1.16 mmHg); assay type: functional
[39] = tested on: Rattus norvegicus; assay: Pulmonary vasodilatory effect in MCT-induced Sprague-Dawley rat pulmonary arterial hypertension model assessed as right ventricular systolic pressure at 2.1 ug/kg, inhaled daily for 28 days by polygraph method (reference value: 56.09 +/- 3.24 mmHg); assay type: functional

Compound O=[N+]([O-])O[C@@H]1CO[C@H]2[C@@H]1OC[C@H]2O has a Ratio [1] of 0.4898, an Activity [2] of 60.12 mmHg and a Ratio [3] of 0.4844. For the same compound, the Activity [4] was 60.76 mmHg, the Activity [5] was 27.3 mmHg and the Activity [6] was 25.11 mmHg.
With COC(=O)[C@]12CCC(C)(C)C[C@H]1[C@H]1C(=O)C=C3[C@@]4(C)C(O[C@@H]5CO[C@H]6[C@@H]5OC[C@H]6O[N+](=O)[O-])C(C#N)=C(OC(C)=O)C(C)(C)[C@@H]4CC[C@@]3(C)[C@]1(C)CC2 (stereo not given in full) the Activity [7] was “Active”, the Activity [8] was 20.72 mmHg and the Ratio [9] was 0.3656. For the same compound, the Activity [10] was 44.75 mmHg, the Activity [11] was “Active” and the Activity [12] was “Active”. For the same compound, the inhibition [13] was “Active”, the Drug metabolism [14] was 15.9 ng/mL and the concentration at 1 h [15] was 243 ng/mL. For the same compound, the inhibition [16] was “Active”, the inhibition [17] was “Active” and the inhibition [18] was “Active”. For the same compound, the inhibition [19] was “Active”, the inhibition [20] was “Active” and the inhibition [21] was “Active”. The inhibition [22] was “Active”, the inhibition [23] was “Active” and the inhibition [24] was “Active”. The inhibition [25] was “Active”, the inhibition [26] was “Active” and the Drug metabolism [27] was 78.5 ng/mL. The Drug metabolism [28] was “Metabolite_Detected”.
With COC(=O)[C@]12CCC(C)(C)C[C@H]1[C@H]1C(=O)C=C3[C@@]4(C)C=C(C#N)C(=O)C(C)(C)[C@@H]4CC[C@@]3(C)[C@]1(C)CC2 [BARDOXOLONE METHYL] the Drug metabolism [29] was “Metabolite_Detected”, the Ratio [30] was 0.4898 and the concentration at 6 h [31] was 3.4 ng/mL. The concentration at 1 h [15] was 180 to 444 ng/mL, the concentration at 3 h [32] was 44.8 ng/mL and the Drug uptake [33] was “Bld”. The Activity [34] was 60.12 mmHg, the Ratio [35] was 0.5123 and the Activity [36] was 26.29 mmHg. For the same compound, the Drug metabolism [37] was “Metabolite_Detected”, the Activity [38] was 27.3 mmHg and the Activity [39] was 61.24 mmHg.
